Reference: patent US9839669B2 (priority 2011, dated 2017)
Where two headings read alike, the source gives them in different places.

Columns and labels:
HSV-1 = format: cell-based, Herpes simplex viruses type 1; settings: Aciclovir 1.5 mmol

## Nc1nc2c(ncn2COCCO)c(=O)[nH]1 [Aciclovir]
BGM cells
  cytotoxicity: negative
Vero cells
  cytotoxicity: negative
HSV-1; average over virus dilutions
  Average relative inhibition: 100
HSV-1; virus dilution 10^−5.0
  Number of plaque, Mean value: 0
  Relative infectiosity: 0
  Relative inhibition: 100
HSV-1; virus dilution 10^−5.48
  Number of plaque, Mean value: 0
  Relative infectiosity: 0
  Relative inhibition: 100
HSV-1; virus dilution 10^−5.95
  Number of plaque, Mean value: 0
  Relative infectiosity: 0
  Relative inhibition: 100
